Results published in patent US7452905B2, “Phenylalanine derivatives” (Ajinomoto Co., Inc., priority 2000, dated 2008).

Molecular target: T1, integrin α4 β1 (Homo sapiens, UniProt P05556+P13612)
T1 construct: cell strain Jurkat (ATCC TIB-152) of human T cells, known to express integrin α4 β1; endogenous in cells; host or cells: Jurkat (ATCC TIB-152)
Experiment: VCAM antagonist activity (VCAM-1/α4β1 binding assay), Jurkat cells binding to VCAM-1
Type: cell-based
Conditions: Jurkat cells binding to recombinant human VCAM-1; 50% binding inhibition; read-out: Antagonistic Activity IC50 α 4 β 1/VCAM
Description: VCAM Antagonist Activity (VCAM-1/α4β1 Binding Assay)
The capacity of a test substance antagonistic to the binding of cell strain Jurkat (ATCC TIB-152) of human T cells, known to express integrin α4 β1, to VCAM-1 was determined. 100 μl/well of a solution (500 ng/ml) of recombinant human VCAM-1 (R & D systems) solution diluted with buffer A (0.1 M NaHCO3, pH 9.6) was added to a micro titer plate having 96 wells (Nunc Maxisorp). After the incubation at 4° C. overnight, unbound VCAM-1 was removed by washing once with PBS. After completion of the washing, a buffer (buffer B) obtained by diluting Block Ace (Dainippon Pharmaceutical Co., Ltd.) with PBS to ¼ concentration was added in an amount of 150 μl/well. After the incubation at room temperature for 1 hour, buffer B was removed and the plate was washed with PBS once.
Jurkat cells were washed with Dulbecco modified Eagle medium (SIGMA, hereinafter referred to as “DMEM”) twice and then incubated in DMEM containing 10 μg/ml of Calcein-AM (Wako Pure Chemical Industries, Ltd.) at 37° C. in dark place for 30 minutes to label with fluorescence. The cells were again suspended in a binding buffer (20 mM HEPES, DMEM containing 0.1% BSA).
50 μl of a test substance of various concentrations obtained by the dilution with the binding buffer was added to the plate. Immediately thereafter, 50 μl (final volume: 100 μl well) of the fluorescent Jurkat cells (4×10^6 cells/ml) were added thereto, and they were incubated at room temperature for 30 minutes. After the shaking on a plate shaker (IKA MTS-4) at 800 rpm for 30 seconds, the solution was immediately removed to remove the unbound cells. The fluorescence quantity of the bound cells remaining in the wells was determined with a fluorescent plate reader (Wallac 1420 ARVO multi-label counter) (filter excitation wave length: 485 nm, emission wave length: 535 nm). The fluorescent strength thus obtained is proportional to the number of Jurkat cells bound to VCAM-1 and remaining on the plate. The binding rate of each test material in various concentrations was determined while the fluorescent strength of the test material-free well was determined to be 100%. The concentration IC50 for the 50% binding inhibition was calculated.

T1 sequence (P13612 34-1032): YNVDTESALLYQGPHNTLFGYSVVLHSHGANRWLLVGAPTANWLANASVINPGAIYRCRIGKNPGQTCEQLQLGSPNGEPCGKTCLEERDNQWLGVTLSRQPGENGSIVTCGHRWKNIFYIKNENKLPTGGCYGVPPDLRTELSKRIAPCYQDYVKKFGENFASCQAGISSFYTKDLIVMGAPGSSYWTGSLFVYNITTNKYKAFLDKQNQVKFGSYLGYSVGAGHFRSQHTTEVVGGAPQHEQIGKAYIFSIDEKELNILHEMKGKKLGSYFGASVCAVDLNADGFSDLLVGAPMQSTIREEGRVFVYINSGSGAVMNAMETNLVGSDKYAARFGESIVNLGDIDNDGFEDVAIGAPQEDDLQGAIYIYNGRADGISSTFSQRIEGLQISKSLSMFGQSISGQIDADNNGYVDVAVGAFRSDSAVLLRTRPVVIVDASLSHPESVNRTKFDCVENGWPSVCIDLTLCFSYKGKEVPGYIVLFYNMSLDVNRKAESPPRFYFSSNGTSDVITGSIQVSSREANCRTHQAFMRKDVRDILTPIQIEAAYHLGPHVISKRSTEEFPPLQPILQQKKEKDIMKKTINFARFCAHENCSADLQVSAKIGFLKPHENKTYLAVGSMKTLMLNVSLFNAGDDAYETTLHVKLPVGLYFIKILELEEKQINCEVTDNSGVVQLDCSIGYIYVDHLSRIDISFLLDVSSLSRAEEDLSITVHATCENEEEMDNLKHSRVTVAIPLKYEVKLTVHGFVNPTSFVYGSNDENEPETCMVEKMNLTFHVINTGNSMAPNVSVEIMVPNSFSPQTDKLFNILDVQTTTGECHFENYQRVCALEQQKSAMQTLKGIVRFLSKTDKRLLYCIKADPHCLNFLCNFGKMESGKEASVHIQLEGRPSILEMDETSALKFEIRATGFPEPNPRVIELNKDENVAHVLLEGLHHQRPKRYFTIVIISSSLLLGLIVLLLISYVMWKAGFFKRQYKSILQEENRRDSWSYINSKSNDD
T1 sequence (P05556 21-798): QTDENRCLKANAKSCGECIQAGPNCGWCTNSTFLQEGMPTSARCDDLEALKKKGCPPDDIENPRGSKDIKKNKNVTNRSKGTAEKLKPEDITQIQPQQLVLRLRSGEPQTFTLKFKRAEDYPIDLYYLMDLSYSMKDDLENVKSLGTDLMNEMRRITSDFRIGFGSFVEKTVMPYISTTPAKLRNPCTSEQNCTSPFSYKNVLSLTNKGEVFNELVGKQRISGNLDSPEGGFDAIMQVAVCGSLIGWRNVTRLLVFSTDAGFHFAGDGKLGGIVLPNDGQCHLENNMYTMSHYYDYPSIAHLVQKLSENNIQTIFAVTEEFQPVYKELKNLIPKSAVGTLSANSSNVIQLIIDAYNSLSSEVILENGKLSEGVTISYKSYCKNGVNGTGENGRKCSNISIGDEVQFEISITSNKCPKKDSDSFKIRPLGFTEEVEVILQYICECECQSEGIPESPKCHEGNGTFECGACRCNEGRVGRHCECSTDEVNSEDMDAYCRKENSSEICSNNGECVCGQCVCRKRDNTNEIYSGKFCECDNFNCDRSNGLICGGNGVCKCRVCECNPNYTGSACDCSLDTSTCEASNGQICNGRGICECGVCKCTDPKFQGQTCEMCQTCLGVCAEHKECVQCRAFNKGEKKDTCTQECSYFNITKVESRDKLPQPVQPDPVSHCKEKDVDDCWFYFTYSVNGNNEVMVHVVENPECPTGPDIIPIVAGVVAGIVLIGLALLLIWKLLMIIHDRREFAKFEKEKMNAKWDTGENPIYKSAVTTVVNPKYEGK

Row | SMILES | IC50 [nM]
1 | O=C(N[C@@H](Cc1ccc(N2C(=O)c3ccccc3C2=O)cc1)C(=O)O)c1c(Cl)cccc1Cl [Example 1] | 210
2 | Nc1cccc2c1C(=O)N(c1ccc(C[C@H](NC(=O)c3c(Cl)cccc3Cl)C(=O)O)cc1)C2=O [Example 71] | 410
3 | CN(C)C(=O)c1ccc2c(c1)C(=O)N(c1ccc(C[C@H](NC(=O)c3c(Cl)cccc3Cl)C(=O)O)cc1)C2=O [Example 33] | 260
4 | O=C(N[C@@H](Cc1ccc(N2C(=O)[C@@H]3CCCC[C@H]3C2=O)cc1)C(=O)O)c1c(Cl)cccc1Cl [Example 40] | 240
5 | O=C(N[C@@H](Cc1ccc(N2C(=O)C3=C(CCCC3)C2=O)cc1)C(=O)O)c1c(Cl)cccc1Cl [Example 37] | 140
6 | O=C(N[C@@H](Cc1ccc(N2CC=CCC2=O)cc1)C(=O)O)c1c(Cl)cccc1Cl [Example 26] | 5300
7 | O=C(N[C@@H](Cc1ccc(N2C(=O)Cc3ccccc3C2=O)cc1)C(=O)O)c1c(Cl)cccc1Cl [Example 15] | 740
8 | O=C(N[C@@H](Cc1ccc(N2C(=O)c3ccc(O)cc3C2=O)cc1)C(=O)O)c1c(Cl)cccc1Cl [Example 77] | 770
9 | O=C(N[C@@H](Cc1ccc(N2CC=CC2=O)cc1)C(=O)O)c1c(Cl)cccc1Cl [Example 25] | 5000
10 | O=C(N[C@@H](Cc1ccc(N2C(=O)c3cccc4cccc(c34)C2=O)cc1)C(=O)O)c1c(Cl)cccc1Cl [Example 16] | 1100
11 | O=C(N[C@@H](Cc1ccc(N2C(=O)C3=C(SCCS3)C2=O)cc1)C(=O)O)c1c(Cl)cccc1Cl [Example 38] | 220
12 | CCOc1cccc2c1C(=O)N(c1ccc(C[C@H](NC(=O)c3c(Cl)cccc3Cl)C(=O)O)cc1)C2=O [Example 73] | 210
13 | O=C(N[C@@H](Cc1ccc(N2C(=O)C3CC3C2=O)cc1)C(=O)O)c1c(Cl)cccc1Cl (some centres unmarked) [Example 46] | 1700
14 | O=C(N[C@@H](Cc1ccc(N2C(=O)[C@H]3CC=CC[C@H]3C2=O)cc1)C(=O)O)c1c(Cl)cccc1Cl [Example 45] | 1200
15 | COc1ccc2c(c1)C(=O)N(c1ccc(C[C@H](NC(=O)c3c(Cl)cccc3Cl)C(=O)O)cc1)C2=O [Example 78] | 520
16 | O=C(N[C@@H](Cc1ccc(N2C(=O)[C@@H]3[C@H](C2=O)[C@@H]2C=C[C@H]3C2)cc1)C(=O)O)c1c(Cl)cccc1Cl [Example 42] | 560
17 | O=C(N[C@@H](Cc1ccc(N2C(=O)[C@H]3CC[C@H](c4ccccc4)C[C@H]3C2=O)cc1)C(=O)O)c1c(Cl)cccc1Cl [Example 47] | 2100
18 | O=C(N[C@@H](Cc1ccc(N2Cc3ccccc3C2=O)cc1)C(=O)O)c1c(Cl)cccc1Cl [Example 17] | 1900

Row | SMILES | IC50 [nM]
19 | CC1(C)[C@H]2CC[C@]1(C)C(=O)N(c1ccc(C[C@H](NC(=O)c3c(Cl)cccc3Cl)C(=O)O)cc1)C2=O [Example 49] | 2000
20 | Cc1cccc2c1C(=O)N(c1ccc(C[C@H](NC(=O)c3c(Cl)cc(-c4nnn[nH]4)cc3Cl)C(=O)O)cc1)C2=O [Example 83, (2S)-2-(2,6-dichloro-4-tetrazolyl-benzoylamino)-3-[4-(4-methyl-1,3-dioxo-1,3-dihydroisoindole-2-yl)phenyl] Propionic Acid] | 5.9
21 | O=C(N[C@@H](Cc1ccc(N2C(=O)CC3(CCCC3)CC2=O)cc1)C(=O)O)c1c(Cl)cccc1Cl [Example 48] | 1300
22 | Cc1cccc2c1C(=O)N(c1ccc(C[C@H](NC(=O)c3c(Cl)cc(NS(C)(=O)=O)cc3Cl)C(=O)O)cc1)C2=O [Example 84] | 15
23 | O=C(N[C@@H](Cc1ccc(N2C(=O)c3cccc(OCc4ccccc4)c3C2=O)cc1)C(=O)O)c1c(Cl)cccc1Cl [Example 74] | 1200
24 | CC1CCC2C(=O)N(c3ccc(C[C@H](NC(=O)c4c(Cl)cccc4Cl)C(=O)O)cc3)C(=O)C2C1 (some centres unmarked) [Example 43] | 1600
25 | Cc1ccc2c(c1)C(=O)N(c1ccc(C[C@H](NC(=O)c3c(Cl)cccc3Cl)C(=O)O)cc1)C2=O [Example 6] | 240
26 | O=C(N[C@@H](Cc1ccc(N2CC=CCCC2=O)cc1)C(=O)O)c1c(Cl)cccc1Cl [Example 27] | 2800
27 | O=C(N[C@@H](Cc1ccc(N2C(=O)c3ccc(OCc4ccccc4)cc3C2=O)cc1)C(=O)O)c1c(Cl)cccc1Cl [Example 80] | 1100
28 | Cc1ccc(C)c2c1C(=O)N(c1ccc(C[C@H](NC(=O)c3c(Cl)cccc3Cl)C(=O)O)cc1)C2=O [Example 30] | 450
29 | O=C(N[C@@H](Cc1ccc(N2C(=O)[C@@H]3[C@H](C2=O)[C@@H]2C=C[C@H]3CC2)cc1)C(=O)O)c1c(Cl)cccc1Cl [Example 44] | 1400
30 | O=C(N[C@@H](Cc1ccc(N2C(=O)c3ccc([N+](=O)[O-])cc3C2=O)cc1)C(=O)O)c1c(Cl)cccc1Cl [Example 9] | 170
31 | Cc1cccc2c1C(=O)N(c1ccc(C[C@H](NC(=O)c3c(Cl)cncc3Cl)C(=O)O)cc1)C2=O [Example 59] | 73
32 | CC(=O)C1Cc2ccccc2C(=O)N1c1ccc(C[C@H](NC(=O)c2c(Cl)cccc2Cl)C(=O)O)cc1 (some centres unmarked) [Example 86] | 530
33 | CCCCOc1cccc2c1C(=O)N(c1ccc(C[C@H](NC(=O)c3c(Cl)cccc3Cl)C(=O)O)cc1)C2=O [Example 75] | 790
34 | O=C(N[C@@H](Cc1ccc(N2C(=O)Cc3ccccc3CC2=O)cc1)C(=O)O)c1c(Cl)cccc1Cl [Example 82] | 3500
35 | CCOc1ccc2c(c1)C(=O)N(c1ccc(C[C@H](NC(=O)c3c(Cl)cccc3Cl)C(=O)O)cc1)C2=O [Example 79] | 570
